According to publication PMC11738990, “A small-molecule TNIK inhibitor targets fibrosis in preclinical and clinical models” (Nature Biotechnology, 2024):
Several values for one entry are separate records, joined by “and”; a condition that tells them apart may be missing. Equal values may be shown once.

Key:
C57BL/6 mice [1] = assay: Bleomycin-induced lung fibrosis model; type: in vivo, mouse; conditions: G4 INS018_055 30mpk BID; individual animals, Fig 3B-C; 30 mg/kg
Procedure: Mice received bleomycin on day 1 at a dose of 0.66 mg per kg (equivalent to 1 U per kg), in a volume of 50 μl by intratracheal administration, or received saline (sham group). On day 7, dosing with the corresponding compounds was started. The vehicle group (group 1) was treated with 0.5% methylcellulose BID. […] On days 5 and 21, lung function measurement was performed. On day 28, all animals were killed, and blood and tissue samples were collected along with BALF.
Lung function was measured according to the HDB standard protocol. Expiratory time, relaxation time, peak expiratory flow and peak inspiratory flow were collected and used to calculate Penh data.
Mice were first anesthetized with Zoletil–xylazine (50 mpk and 10 mpk, i.p.). Next, a 1.5–2-cm longitudinal incision was made on the ventral side of the neck to expose the trachea by blunt dissection, and curved forceps were placed underneath the trachea. A 10–12-cm piece of suture was then threaded underneath the trachea using forceps. The ends of the suture were then pulled cranially to ‘stretch’ the trachea toward the surgeon. A 20-G needle was then used to poke a hole in the trachea as close to the larynx as possible. A 22-G blunt stainless steel needle connected to PE tubing was placed in the hole and inserted approximately 5–8 mm into the trachea. The cannula was secured in the trachea by tying the suture around it with an overhand knot. A 1-ml syringe containing 0.4 ml saline was gently pushed forward and backward three times to recover BALF fluid. BALF was transferred into empty tubes and stored on ice. This process was repeated twice with 0.3 ml saline for a total volume of 1 ml.
Total cell numbers were counted with a standard hemocytometer by mixing 20 μl BALF with 20 μl trypan blue. Cytospins were prepared by cytocentrifugation using Cytospins at 106g for 5 min, and then smears of BALF cells were stained with Diff-Quick stain. Cell differentiation was performed by counting at least 400 cells using standard hemocytologic criteria to classify them as alveolar macrophages or monocytes, neutrophils, eosinophils or lymphocytes. The rest of the BALF fluid was centrifuged, and supernatants were collected and stored at −80 °C for cytokine, chemokine and total protein analysis.
From the collected BALF, concentrations of cytokines were measured from mice in groups 2–7 killed on day 28. Mouse BALF cytokines and chemokines were measured using the ELISA Analysis Kit (Sinobest Bio). Mouse BALF soluble collagen was measured using the Soluble Collagen kit (Biocolor). Mouse lung hydroxyproline content was measured using the Hydroxyproline Assay Kit (Njjcbio).
Left lung lobes were removed from each mouse and fixed in 10% NBF solution, embedded in paraffin and processed to obtain 4-μm sections for staining with H&E. H&E-stained slides were scanned using an Aperio ScanScope Model CS2 (Leica) at ×200 magnification. Images were then opened in the HALO Plus 5 workstation (version 2.3, Indica Labs) program. Using the pen annotation tool, the whole-lung section was selected as an annotation layer. The area of vessels was defined as background using the exclusion drawing tool. The total inflammation area was quantified by selecting the dark blue inflammation cells using the pen annotation tool manually. The percentage of H&E staining (inflammation area/total area of the lung) in the selected annotation was then calculated using the program.
Masson’s trichrome staining was conducted using a ready-to-use kit (Trichrome Stain (Masson) Kit, HT15, Sigma-Aldrich) as described by the manufacturer.
Lung sections were cut at a thickness of 4 μm, dried in an oven for 1 h and stained with M&T using our standard protocol.

Sprague Dawley rats = assay: Bleomycin-induced lung fibrosis model, inhalation administration; type: in vivo, rat; conditions: individual animals, Fig 4
Procedure: On day 1 of the study, bleomycin hydrochloride was administered to 8–9-week-old Sprague Dawley rats at a final concentration of 1.5 mg ml^−1 in sodium chloride solution (dosed volume at 1.0 ml per kg) by intratracheal atomization (once in the morning and once in the afternoon) to build the pulmonary fibrosis model.
A German PARI compression atomizer (PARI TurboBOY) was set at an aerosol flow rate of 9–10 l min^−1. […] The dilution flow of aerosol was set at 0 l min^−1, and the pumping-out flow from the chamber was set at 6 l min^−1. The fluid rate was set at 0.5 ml min^−1 for test article replenishment. Before nebulization, aerosol-generation conditions were validated three times.
And these parameters were recorded in real time during the experiment.
For concentration assessment, a glass fiber filter membrane (φ = 37 mm) was used to measure aerosol concentrations during drug administration from approximately day 8 to day 28. Sampling was taken at 5 min (±1 min) after drug administration from a random exposure port. […] Aerosol particle size parameters were calculated with the system software: median mass aerodynamic diameter (MMAD), geometric standard deviation, fine particle fraction (percentage of fine particles with MMAD < 5 μm), etc.
On day 29 and before euthanasia, animals were anesthetized with chloral hydrate (90 mg ml^−1, 5 ml per kg, i.p.). Necks were cut longitudinally at the middle to isolate trachea, and a catheter was intubated into the trachea toward the tail direction and fixed with a suture thread. The anesthetized animals were placed into the plethysmography chamber, to which the airway was connected. The AniRes2005 animal lung function-analysis system was used to assess parameters including FVC, airway resistance and pulmonary compliance. The ventilator respiration rate was set to 65 beats per minute; the respiration ratio was set to 20:10; the negative pressure controller was set to 30 cm H2O. FVC detection was set to pressure-control mode, while pressure was set to 30 cm H2O. The startup mode was selected to automatically detect at the end of breath, and the ‘Start’ button was clicked to passively inhale and then turned to exhale after reaching the set pressure value. Next, the ‘Stop’ button was clicked to complete an FVC detection. Each animal was evaluated for FVC at least five times. The final result was the mean value after the maximum and minimum data were excluded for analysis.

mice = conditions: male mice, 180 mg/kg daily; ref Insilico Medicine, 2021; cited from earlier work
healthy subjects = assay: Phase I New Zealand safety (NCT05154240); conditions: n (%) [E]
C57BL/6 mice [2] = assay: Unilateral ureteral obstruction (UUO) kidney fibrosis model; conditions: for Positive area (%), per mouse: Fig 5B-D Individual Values;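 on all read-outs here: mice had the left ureter ligated on day 0, received treatment from day 0 through day 14 and were killed on day 14 for kidney analysis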
Procedure: The surgery took place on two separate days. Mice were divided into two slots based on their body weight before the day of the surgery. On day 0 (day of surgery), UUO surgery was performed after administration of three types of mixed anesthetic agents (medetomidine, midazolam, butorphanol). Mice were shaved at the incision site, the abdomen was cut open, and the left ureter was exteriorized and ligated with 4-0 silk sutures at two points. Finally, the peritoneum and the skin were closed with sutures.
Treatments were applied from day 0 to day 14. And animals were killed on day 14, and blood and tissue samples were collected.
Frozen kidney samples were processed by an alkaline acid hydrolysis method as follows. […] Next, AC buffer (2.2 M acetic acid and 0.48 M citric acid, 400 μl) was added to the samples, followed by centrifugation to collect the supernatant. […] The samples were then mixed with Ehrlich’s solution (400 μl) and heated at 65 °C for 20 min to develop color. After samples were cooled on ice and centrifuged to remove precipitates, the optical density of each supernatant was measured at 560 nm. Hydroxyproline concentrations were calculated from the hydroxyproline standard curve. Kidney hydroxyproline contents were expressed as μg per mg protein, and the amount of protein was determined using the BCA Protein Assay Kit (Thermo Fisher Scientific).
At the end of the UUO study, the left kidney was fixed in Bouin’s solution and embedded in paraffin. Kidney sections were stained using picro-Sirius red solution (Waldeck). To quantify the interstitial fibrosis area, brightfield images in the corticomedullary region were captured using a digital camera (DFC295) at 200-fold magnification, and the positive areas in five fields per section were measured using ImageJ software (National Institute of Health).
Paraffin sections were deparaffinized and hydrophilized with xylene, 100–70% alcohol series and RO water, and then circles were drawn around the kidney sections. […] After washing with PBS, kidney sections were treated with PBS with Tween-20 (PBST), followed by incubation with Block Ace (DS Pharma Biomedical) at room temperature for 10 min. The sections were incubated with the primary antibody (anti-collagen I) at 4 °C overnight. After washing with PBS, kidney sections were treated with PBST, followed by incubation with secondary antibody at room temperature for 30 min. After washing with PBS, kidney sections were fixed with 1% glutaraldehyde solution at room temperature for 1 min. After washing with RO water, kidney sections were treated with PBST and then colored using a chromogenic substrate (Simple Stain DAB, Nichirei Bioscience). After washing with RO water, kidney sections were immersed in an eightfold-diluted hematoxylin solution for 1 min and washed with RO water immediately. […] For scoring of IHC analyses, brightfield images were captured using a digital camera (DFC295) at 200-fold magnification, and the score in one field per section was determined.

[3] = INS018_055 3 mg/kg BID, individual animals, Fig 5C-D, 3 mg/kg
[4] = INS018_055 10 mg/kg BID, individual animals, Fig 5C-D, 10 mg/kg
[5] = INS018_055 30 mg/kg BID, individual animals, Fig 5C-D, 30 mg/kg

CC(C)n1cnc(-c2ccc(F)cc2)c1-c1nc(C(=O)Nc2ccc(N3CCN(C)CC3)cc2)c[nH]1 [INS018_055, 2-[4-(4-fluorophenyl)-1-(prop-2-yl)imidazol-5-yl]-N-[4-(4-methylhexahydropyrazin-1-yl)phenyl]-1H-imidazole-4-carboxamide]
Modified Ashcroft Score (C57BL/6 mice [1]): 1.5 and 3 and 6
collagen I (C57BL/6 mice [1]): 0.43 and 0.13 and 2.32 and 1.69 and 1.28 and 0.07 and 1.12 and 0.03 and 0.15 and 0.02
α-SMA (C57BL/6 mice [1]): 0.1 and 0.05 and 0.38 and 0.09 and 0.73 and 0.22 and 0.72 and 0.11 and 0.15 and 0.18
Cdyn (Sprague Dawley rats; INS018_055 0.1 mg/mL): 0.2868 mL/cmH2O and 0.282 mL/cmH2O and 0.2528 mL/cmH2O and 0.2276 mL/cmH2O and 0.2464 mL/cmH2O and 0.2949 mL/cmH2O and 0.266 mL/cmH2O and 0.2918 mL/cmH2O and 0.3725 mL/cmH2O
FVC (Sprague Dawley rats; INS018_055 0.1 mg/mL): 11.667 and 10.372 and 9.331 and 9.408 and 9.013 and 11.225 and 10.246 and 9.406 and 11.458
MT staining for fibrosis (Sprague Dawley rats; INS018_055 0.1 mg/mL): 39.4049 and 24.0295 and 21.4518 and 29.9242 and 25.5526 and 41.2629 and 23.5476 and 24.3272 and 18.8851
Modified Ashcroft Score (Sprague Dawley rats; INS018_055 0.1 mg/mL): 3.58 and 3.5 and 3.67 and 4.67
RL (Sprague Dawley rats; INS018_055 0.1 mg/mL): 0.2183 cmH2O and 0.2228 cmH2O and 0.249 cmH2O and 0.2763 cmH2O and 0.2553 cmH2O and 0.2139 cmH2O and 0.2369 cmH2O and 0.215 cmH2O and 0.1673 cmH2O
Cdyn (Sprague Dawley rats; INS018_055 0.3 mg/mL): 0.1877 mL/cmH2O and 0.26 mL/cmH2O and 0.28 mL/cmH2O and 0.2261 mL/cmH2O and 0.2364 mL/cmH2O and 0.2626 mL/cmH2O and 0.2848 mL/cmH2O and 0.214 mL/cmH2O and 0.2795 mL/cmH2O
FVC (Sprague Dawley rats; INS018_055 0.3 mg/mL): 8.356 and 10.531 and 9.955 and 8.979 and 9.285 and 9.684 and 11.437 and 8.52 and 10.758
MT staining for fibrosis (Sprague Dawley rats; INS018_055 0.3 mg/mL): 37.0531 and 32.9417 and 33.2766 and 28.9122 and 24.8997 and 24.7844 and 23.0018 and 21.403 and 19.6831
Modified Ashcroft Score (Sprague Dawley rats; INS018_055 0.3 mg/mL): 3.33 and 3.5 and 3.42 and 3.17 and 3.25
RL (Sprague Dawley rats; INS018_055 0.3 mg/mL): 0.334 cmH2O and 0.2417 cmH2O and 0.2246 cmH2O and 0.2783 cmH2O and 0.266 cmH2O and 0.2397 cmH2O and 0.2213 cmH2O and 0.2931 cmH2O and 0.2253 cmH2O
Cdyn (Sprague Dawley rats; INS018_055 1 mg/mL): 0.2887 mL/cmH2O and 0.2534 mL/cmH2O and 0.2831 mL/cmH2O and 0.2977 mL/cmH2O and 0.3373 mL/cmH2O and 0.3256 mL/cmH2O and 0.3052 mL/cmH2O and 0.2663 mL/cmH2O and 0.1759 mL/cmH2O
FVC (Sprague Dawley rats; INS018_055 1 mg/mL): 11.605 and 10.16 and 11.107 and 11.731 and 11.449 and 11.248 and 11.212 and 9.823 and 10.688
MT staining for fibrosis (Sprague Dawley rats; INS018_055 1 mg/mL): 13.0601 and 19.1932 and 11.5913 and 20.3302 and 12.2482 and 5.166 and 2.8883 and 26.6827 and 9.6738
Modified Ashcroft Score (Sprague Dawley rats; INS018_055 1 mg/mL): 3.08 and 2.5 and 1.92 and 1.58
RL (Sprague Dawley rats; INS018_055 1 mg/mL): 0.2246 cmH2O and 0.2544 cmH2O and 0.2308 cmH2O and 0.2117 cmH2O and 0.1856 cmH2O and 0.1933 cmH2O and 0.2063 cmH2O and 0.2431 cmH2O and 0.3604 cmH2O
Cdyn (Sprague Dawley rats; INS018_055 6 mg/mL): 0.2872 mL/cmH2O and 0.2596 mL/cmH2O and 0.2974 mL/cmH2O and 0.09892 mL/cmH2O and 0.2655 mL/cmH2O and 0.2689 mL/cmH2O and 0.283 mL/cmH2O and 0.2425 mL/cmH2O and 0.303 mL/cmH2O
FVC (Sprague Dawley rats; INS018_055 6 mg/mL): 10.938 and 9.019 and 10.156 and 12.074 and 10.094 and 10.135 and 10.127 and 8.751 and 10.893
MT staining for fibrosis (Sprague Dawley rats; INS018_055 6 mg/mL): 11.7864 and 15.1925 and 36.9642 and 17.393 and 15.0833 and 12.2135 and 12.9504 and 11.5722 and 12.5986
Modified Ashcroft Score (Sprague Dawley rats; INS018_055 6 mg/mL): 2.25 and 3.08 and 3
RL (Sprague Dawley rats; INS018_055 6 mg/mL): 0.2197 cmH2O and 0.2419 cmH2O and 0.2117 cmH2O and 0.6313 cmH2O and 0.2427 cmH2O and 0.2338 cmH2O and 0.2227 cmH2O and 0.2591 cmH2O and 0.2072 cmH2O
reduction of erythrocyte count (mice): 19.8%
Any Death (healthy subjects; MAD any dose N=18): 0 [0]
Any Death (healthy subjects; SAD any dose N=30): 0 [0]
Fibrosis area (sirius red positive area) (C57BL/6 mice [2]; [3]): 2.24 and 2.26 and 1.61 and 1.34 and 1.14 and 1.04
Kidney hydroxyproline (C57BL/6 mice [2]; [3]): 6.42 and 7.24 and 6.97 and 8.63 and 7.89 and 3.86 and 2.76 and 8.85
Fibrosis area (sirius red positive area) (C57BL/6 mice [2]; [4]): 0.48 and 0.7 and 0.89 and 0.94 and 0.99 and 0.64 and 0.93 and 1.12
Kidney hydroxyproline (C57BL/6 mice [2]; [4]): 4.39 and 2.86 and 3.32 and 6 and 3.14 and 6.84 and 3.33 and 3
Collagen Type 1 score (C57BL/6 mice [2]; [5]): 2
Fibrosis area (sirius red positive area) (C57BL/6 mice [2]; [5]): 0.44 and 0.53 and 0.81 and 0.2 and 0.68 and 0.43 and 0.38 and 0.73
Kidney hydroxyproline (C57BL/6 mice [2]; [5]): 2.37 and 2.39 and 2.44 and 2.78 and 2.29 and 3.08 and 2.31
Positive area (%), per mouse (C57BL/6 mice [2]; INS018_055 high dose group, value per mouse (501-508) over 5 photos): 0.43% and 0.38% and 0.73% and 0.44% and 0.53% and 0.81% and 0.20% and 0.68%
Positive area (%), per mouse (C57BL/6 mice [2]; INS018_055 low dose group, value per mouse (301-308) over 5 photos): 1.34% and 1.14% and 1.04% and 2.24% and 2.26% and 1.61%
Positive area (%), per mouse (C57BL/6 mice [2]; INS018_055 middle dose group, value per mouse (401-408) over 5 photos): 0.94% and 0.99% and 0.64% and 0.93% and 1.12% and 0.48% and 0.70% and 0.89%
